# Assays:
# [1] = Fluorescence of modified Rhodamine dyes (spectrometry and spectrofluorometry); assay type: physicochemical
# Method: Modified Rhodamine dyes were evaluated using both conventional spectrometry and spectrofluorometry. For both types of analysis the dyes were dissolved in either methanol or 50 mM Tris at final dye concentrations ranging from 10 nM to 100 μM. An absorbance spectrum from wavelengths of 200 nm to 700 nm was determined for each dye using a Beckman DU-7000 spectrophotometer. The dyes all had absorbance peaks at around 470 to 480 nm. This wavelength was chosen as the fluorescence excitation wavelength and a full fluorescence emission spectrum was determined using a Hitachi F-2000 spectrofluorometer. For each dye, the emission peak was around 520 nm and the fluorescent output was measured under the conditions tested (see Table 1).
# HL-60 cells = assay: Uptake and retention of modified Rhodamine dyes by HL-60 cells (epifluorescence microscopy); assay type: cell-based; details: 10 μM or 50 μM dye; for staining of HL-60 cells: 37° C., serum-free Iscove's medium; for leakage of the dye into the medium / retention in cells: after washing
# Method: HL-60 cells were placed in 5 ml of Iscove's medium (without serum or phenol-red) containing 10 μM or 50 μM N-octyloxycarbonyl-Rhodamine 110, N-decyloxycarbonyl-Rhodamine-110, N-dodecyloxycarbonyl-Rhodamine-110, N-hexyloxycarbonyl-Rhodamine-110, N-(ethylthio)carbonyl-Rhodamine 110 or Rhodamine 110. The cells were incubated for varying times at 37° C. in a CO2 incubator, recovered by centrifugation, and washed in 50 mL of ice-cold medium. The cells were re-centrifuged and the final pellet was resuspended in 50 μL of fresh medium. Aliquots of each cell suspension were placed in microslides and viewed on a Nikon inverted microscope with epifluorescent illumination.
Molecule,"Peak Emission Wavelength ([1]; Test Conc. 1 μM, Tris) [nm]","Peak Excitation Wavelength ([1]; Test Conc. 1 μM, Tris) [nm]","Signal Amplitude ([1]; Test Conc. 1 μM, Tris)","Peak Emission Wavelength ([1]; Test Conc. 1 μM, MeOH) [nm]","Peak Excitation Wavelength ([1]; Test Conc. 1 μM, MeOH) [nm]","Signal Amplitude ([1]; Test Conc. 1 μM, MeOH)",other results
"COCCOCCOCCOC(=O)Nc1ccc2c(c1)Oc1cc(N)ccc1C21OC(=O)c2ccccc21 (stereo not drawn) [N-(2,5,8-Trioxadecyloxycarbonyl)-Rhodamine 110]",520,485,2841,–,–,–,–
"CCCCOCCOC(=O)Nc1ccc2c(c1)Oc1cc(N)ccc1C21OC(=O)c2ccccc21 (stereo not drawn) [N-(2-Butoxyethoxy)carbonyl-Rhodamine 110, N-(2-Butoxyethoxycarbonyl)-Rhodamine 110]",520,470,2047,–,–,–,–
CCSC(=O)Nc1ccc2c(c1)Oc1cc(N)ccc1C21OC(=O)c2ccccc21 (stereo not drawn) [N-(Ethylthio)carbonyl-Rhodamine 110],520,490,2430,–,–,–,"staining of HL-60 cells (HL-60 cells): moderate, but still easily detectable staining; leakage of the dye into the medium / retention in cells (HL-60 cells): slight leakage"
CCCCCCSC(=O)Nc1ccc2c(c1)Oc1cc(N)ccc1C21OC(=O)c2ccccc21 (stereo not drawn) [N-(Hexylthio)carbonyl-Rhodamine 110],–,–,–,530,490,650,–
CCCCCCN(C)C(=O)Nc1ccc2c(c1)Oc1cc(N)ccc1C21OC(=O)c2ccccc21 (stereo not drawn) [N-(N-Hexyl-N-methylcarbamyl)-Rhodamine 110],520,470,1466,–,–,–,–
"CCCCCCCCSC(=O)Nc1ccc2c(c1)Oc1cc(N)ccc1C21OC(=O)c2ccccc21 (stereo not drawn) [N-(Octylthio)carbonyl-Rhodamine 110, N-(Octylthio)carbonyl Rhodamine 110]",–,–,–,520,470,471,–
"CCCCCCCCCCOC(=O)Nc1ccc2c(c1)Oc1cc(N)ccc1C21OC(=O)c2ccccc21 (stereo not drawn) [N-Decyloxycarbonyl-Rhodamine 110, N-Decyloxycarbonyl-Rhodamine-110]",–,–,–,520,475,827,staining of HL-60 cells (HL-60 cells): stained HL-60 cells intensely; leakage of the dye into the medium / retention in cells (HL-60 cells): almost no leakage of the dye into the medium
"CN(C)C(=O)Nc1ccc2c(c1)Oc1cc(N)ccc1C21OC(=O)c2ccccc21 (stereo not drawn) [N-Dimethylcarbamyl-Rhodamine-110, N-Dimethylcarbamyl-Rhodamine 110]",–,–,–,–,–,–,"Peak Emission Wavelength ([1]; Test Conc. 0.1 μM, Tris): 520 nm; Peak Excitation Wavelength ([1]; Test Conc. 0.1 μM, Tris): 490 nm; Signal Amplitude ([1]; Test Conc. 0.1 μM, Tris): 446"
COC(=O)Nc1ccc2c(c1)Oc1cc(N)ccc1C21OC(=O)c2ccccc21 (stereo not drawn) [N-Methoxycarbonyl-Rhodamine 110],–,–,–,–,–,–,"Peak Emission Wavelength ([1]; Test Conc. 0.1 μM, Tris): 520 nm; Peak Excitation Wavelength ([1]; Test Conc. 0.1 μM, Tris): 470 nm; Signal Amplitude ([1]; Test Conc. 0.1 μM, Tris): 254"
N-Acetyl-Rhodamine 116,530,470,644,–,–,–,–

# Second part, led by results:
"Peak Emission Wavelength ([1]; Test Conc. 1 μM, Tris) [nm]","Peak Excitation Wavelength ([1]; Test Conc. 1 μM, Tris) [nm]","Signal Amplitude ([1]; Test Conc. 1 μM, Tris)","Peak Emission Wavelength ([1]; Test Conc. 1 μM, MeOH) [nm]","Peak Excitation Wavelength ([1]; Test Conc. 1 μM, MeOH) [nm]","Signal Amplitude ([1]; Test Conc. 1 μM, MeOH)",Molecule,other results
–,–,–,520,480,640,"CCCCCCCCCCCCOC(=O)Nc1ccc2c(c1)Oc1cc(N)ccc1C21OC(=O)c2ccccc21 (stereo not drawn) [N-Dodecyloxycarbonyl-Rhodamine 110, N-Dodecyloxycarbonyl-Rhodamine-110]",staining of HL-60 cells (HL-60 cells): stained HL-60 cells intensely; leakage of the dye into the medium / retention in cells (HL-60 cells): almost no leakage of the dye into the medium
520,485,3070,–,–,–,CCOC(=O)Nc1ccc2c(c1)Oc1cc(N)ccc1C21OC(=O)c2ccccc21 (stereo not drawn) [N-Ethoxycarbonyl-Rhodamine 110],–
520,485,988,–,–,–,"CS(=O)(=O)Nc1ccc2c(c1)Oc1cc(N)ccc1C21OC(=O)c2ccccc21 (stereo not drawn) [N-Methylsulfonyl-Rhodamine-110, N-Methylsulfonyl-Rhodamine 110]",–
